System: ARPE-19 cells
Assay: Effect of AZD103 on Aβ1-42-induced VEGF secretion in ARPE-19 cells (VEGF ELISA)
Type: cell-based, human
Source text: The potential of AZD-103 to neutralize the effects of Aβ on VEGF expression by RPE cells was investigated using the following materials and methods.
Materials: Human VEGF Duoset, 2nd Generation was obtained from R & D Systems [# DY293B]. 3,3′,5,5′-Tetramethylbenzidine Liquid Substrate (TMB) was obtained from Sigma [# S8865]. The stop solution for TMB was also obtained from Sigma [# S5814]. Tween-20 was obtained from Fisher [# BP 337-500]; Probumin was obtained from Millipore [#82-045-1]; and, 10× Phosphate Buffered Saline (PBS) was obtained from Roche [#11666789001]. […] The Media was then assessed for levels of VEGF by ELISA (R&D Systems, Minneapolis, Minn.) VEGF ELISA: Conditioned media collected from cell cultures grown in the presence or absence of Aβ1-42 and AZD103 were tested for vascular endothelial growth factor (VEGF) expression using a human VEGF duoset ELISA development kit as described by the manufacturer (R &D systems). […] The reaction was stopped and the colour development was read spectrophotometrically at a wavelength of 450 nm.

In the case of `O[C@H]1[C@H](O)[C@@H](O)[C@H](O)[C@@H](O)[C@@H]1O` [AZD103], the “amount of secreted VEGF” value (ARPE-19 cells (1.5×10^4), Aβ1-42 oligomers pre-incubated 2 hours at 37° C. with AZD103 at weight ratios 1:0.5, 1:1, 1:2, 24 Hr treatment, serum-free medium, ELISA) is reported as “effective towards reducing the amount of secreted VEGF” and the “VEGF expression by RPE cells in presence of Aβ, compared to basal levels (absence of Aβ)” value (ARPE-19 cells, expressed as comparison to Normal ARPE-19 cells that received no treatment) is reported as “returned to basal levels”.

— US20100168250A1, “USE OF CYCLOHEXANEHEXOL DERIVATIVES IN THE TREATMENT OF OCULAR DISEASE” (priority 2007, published 2010)
